We go through 3 molecules from ChEMBL document CHEMBL6115010, “Targeting glioma with heteroaromatic alkaloids: A review of potential therapeutics” (Bioorg Med Chem, 2025).

pIC50: −log10 of the molar value.

The pIC50 is the negative decadic logarithm of the IC50, by convention in mol/L.

For assay [1], the system named is SK-N-SH. Briefly: Induction of apoptosis in human SK-N-SH cells assessed as early apoptotic cells at 200 micromol/L incubated for 48 hrs by Annexin V-FITC/Propidium Iodide staining based flow cytometry analysis (reference value: 10.3 %). Type of assay: functional. The settings on record: dose 200 µmol/L, at 200 µM.
The test system of assay [2] is SK-N-SH. Briefly: Induction of apoptosis in human SK-N-SH cells assessed as early apoptotic cells at 100 micromol/L incubated for 48 hrs by Annexin V-FITC/Propidium Iodide staining based flow cytometry analysis (reference value: 10.3 %). Type of assay: functional. The following applies: dose 100 µmol/L, at 100 µM.
A further assay has as its system U-251. Briefly: Cytotoxicity against human U-251MG cells assessed as cell growth inhibition incubated for 24 hrs by MTT assay. Type of assay: functional, cell-based. The settings on record: U-251, 24 h. (In general: Tetrazolium assays rely on reduction of a dye to a coloured formazan, in cell work by metabolically active cells.)
The test system of the next assay is T98G. Nature of the assay: Cytotoxicity against human T98G cells assessed as reduction in cell viability at 400 uM measured for 24 hrs relative to control. Type of assay: functional.
Assay [3] concerns U-87 MG. Briefly: Cytotoxicity against human U-87 MG cells assessed as reduction in cell viability at 400 uM measured for 24 hrs relative to control. The format is functional, U-87MG ATCC.
The next assay concerns SH-SY5Y. Briefly: Cytotoxicity against human SH-SY5Y cells assessed as reduction in cell viability incubated for 24 hrs by MTT assay. The format is functional, cell-based.
Assay [4] deals with C6. Briefly: Antitumor activity against rat C6 cells implanted in athymic nude mouse model assessed as tumor growth inhibition at 30 mg/kg, sc administered once daily for 12 days and measured after 34 days relative to control. The format is functional. The settings on record: C6, 288 h, time 12 day, read-out: TGI.
The subject of assay [5] is U-87 MG. Nature of the assay: Antitumor activity against human U-87MG cells xenografted in athymic nude mouse model assessed as tumor growth inhibition at 30 mg/kg, ip administered once daily for 12 days relative to control. The settings on record: 288 h, time 12 day, read-out: TGI. Type of assay: functional, U-87MG ATCC. A general note: In xenograft studies the graft and the host belong to different species.

Assay [6] in a line: Antiproliferative activity against mouse GL26 cells assessed as reduction in cell viability measured for 96 hrs by MTT assay. Type of assay: functional, cell-based. The settings on record: GL26, 96 h.
For assay [7], the system named is U-87 MG. Briefly: Antiproliferative activity against human U-87 MG cells assessed as reduction in cell viability measured for 96 hrs by MTT assay. Type of assay: functional, cell-based, U-87MG ATCC.
The test system of assay [8] is C6. Briefly: Antiproliferative activity against rat C6 cells assessed as reduction in cell viability measured for 96 hrs by MTT assay. The following applies: C6, 96 h. The format is functional, cell-based.
The subject of a further assay is 9L. Nature of the assay: Antiproliferative activity against rat 9L cells assessed as reduction in cell viability measured for 96 hrs by MTT assay. Type of assay: functional, cell-based.
Assay [9] concerns C6. Nature of the assay: Antitumor activity against rat C6 cells implanted in athymic nude mouse model assessed as tumor growth inhibition at 30 mg/kg, ip administered once daily for 12 days and measured after 34 days relative to control. Type of assay: functional. The following applies: C6, 816 h, time 34 day, read-out: TGI.
The subject of a further assay is SNB-19. Briefly: Antiproliferative activity against human SNB-19 cells assessed as reduction in cell viability measured for 96 hrs by MTT assay. The format is functional, cell-based. The following applies: SNB-19, 96 h.
The subject of assay [10] is U-87 MG. Briefly: Antitumor activity against human U-87 MG cells implanted with chicken egg assessed as reduction in tumor weight at 10 uM measured after 7 days by microscopic analysis (reference value: 27.87+/-4.7 mg). The format is functional, U-87MG ATCC. The settings on record: time 7 day.

As for `Nc1ncnc2c1ncn2[C@@H]1O[C@H](CO)C[C@H]1O` [CORDYCEPIN], the Activity is listed as 29.8% in the assay with SK-N-SH [1], 29.8% in the assay with SK-N-SH [2], 76% in the assay with T98G and 35% in the assay on U-87 MG [3]. Besides, the results for the pIC50 with U-251 and in the assay with SH-SY5Y were 3.60 and 3.76, respectively.

As to `CC(C)=CCC/C(C)=C/CC/C(C)=C/CN1C(=O)c2cccc(O)c2Nc2c(O)cc(O)cc21` [DIAZEPINOMICIN], the inhibition in vivo at 30 mg/kg with C6 [4] turned out to be 60%; in the assay on U-87 MG [5], 36%; in the assay with C6 [9], 66%. Moreover, the pIC50 was 5.05 in assay [6]; 4.96 in the assay with U-87 MG [7]; 5.37 in the assay on C6 [8]; 5.08 with 9L; 5.28 in the assay on SNB-19.

For `COc1cc2c3cc1Oc1c(OC)c(OC)cc4c1[C@@H](Cc1ccc(O)c(c1)Oc1ccc(cc1)C[C@@H]3N(C)CC2)N(C)CC4` [BERBAMINE], in the assay with U-87 MG [10], the Activity stood at 5.28 mg.
